In patent US20180116983A1, “COMPOUNDS FOR TREATING DISORDERS ASSOCIATED WITH BK CHANNEL MODULATION” (Canbex Therapeutics Limited, priority 2015, published 2018):
Values belong to the compound of their own block, whether it stands above or below them.

Legend:
[1] = test system: salicylate-induced tinnitus in rats; conditions: cited from earlier work
[2] = test system: Fmr1 knockout mouse; conditions: cited from earlier work
[3] = test system: rat models of permanent large-vessel stroke; conditions: cited from earlier work
[4] = target: maxi-K channels (Homo sapiens, UniProt Q12791); conditions: cited from earlier work
Sequence of maxi-K channels (Q12791 whole entry): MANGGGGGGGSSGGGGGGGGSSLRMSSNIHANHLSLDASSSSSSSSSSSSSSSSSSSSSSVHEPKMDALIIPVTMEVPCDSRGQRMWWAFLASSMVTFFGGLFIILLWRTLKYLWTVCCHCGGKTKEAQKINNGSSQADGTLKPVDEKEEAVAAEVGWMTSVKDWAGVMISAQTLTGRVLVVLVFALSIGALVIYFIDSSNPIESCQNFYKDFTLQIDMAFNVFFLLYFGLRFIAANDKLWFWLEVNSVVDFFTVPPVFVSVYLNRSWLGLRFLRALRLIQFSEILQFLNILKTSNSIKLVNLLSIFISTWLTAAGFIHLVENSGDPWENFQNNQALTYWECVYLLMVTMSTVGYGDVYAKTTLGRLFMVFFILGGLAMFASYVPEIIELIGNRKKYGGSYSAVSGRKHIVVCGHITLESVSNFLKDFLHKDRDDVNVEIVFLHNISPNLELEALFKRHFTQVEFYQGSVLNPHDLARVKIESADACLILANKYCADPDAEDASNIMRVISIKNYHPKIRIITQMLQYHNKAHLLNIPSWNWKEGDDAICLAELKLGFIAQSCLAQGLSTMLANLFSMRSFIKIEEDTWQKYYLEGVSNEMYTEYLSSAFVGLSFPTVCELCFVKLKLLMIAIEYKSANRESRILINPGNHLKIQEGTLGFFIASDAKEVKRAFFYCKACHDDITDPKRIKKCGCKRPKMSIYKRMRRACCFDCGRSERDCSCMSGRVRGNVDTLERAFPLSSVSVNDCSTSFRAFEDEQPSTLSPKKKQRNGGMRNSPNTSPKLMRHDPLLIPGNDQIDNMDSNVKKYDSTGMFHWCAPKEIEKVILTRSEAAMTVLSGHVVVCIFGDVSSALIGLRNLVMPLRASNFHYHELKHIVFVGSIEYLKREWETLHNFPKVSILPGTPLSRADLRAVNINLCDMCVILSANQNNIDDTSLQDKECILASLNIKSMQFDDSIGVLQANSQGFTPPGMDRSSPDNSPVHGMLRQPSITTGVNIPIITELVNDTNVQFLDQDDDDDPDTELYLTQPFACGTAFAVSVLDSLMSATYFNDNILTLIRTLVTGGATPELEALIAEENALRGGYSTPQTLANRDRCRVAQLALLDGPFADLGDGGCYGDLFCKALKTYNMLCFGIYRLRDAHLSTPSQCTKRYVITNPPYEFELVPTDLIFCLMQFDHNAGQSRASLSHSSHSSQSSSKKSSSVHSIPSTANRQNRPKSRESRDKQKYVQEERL

[5] = target: T1, BKCa channels formed by the exon-less alpha subunit (Homo sapiens, UniProt Q12791); test: Whole-cell BKCa current in HEK293 cells expressing the alpha subunit alone; assay type: cell-based; conditions: HEK293
T1 construct: expressed in transfected cells; host or cells: HEK293
T1 sequence (Q12791 1-1178 isoform Q12791-5): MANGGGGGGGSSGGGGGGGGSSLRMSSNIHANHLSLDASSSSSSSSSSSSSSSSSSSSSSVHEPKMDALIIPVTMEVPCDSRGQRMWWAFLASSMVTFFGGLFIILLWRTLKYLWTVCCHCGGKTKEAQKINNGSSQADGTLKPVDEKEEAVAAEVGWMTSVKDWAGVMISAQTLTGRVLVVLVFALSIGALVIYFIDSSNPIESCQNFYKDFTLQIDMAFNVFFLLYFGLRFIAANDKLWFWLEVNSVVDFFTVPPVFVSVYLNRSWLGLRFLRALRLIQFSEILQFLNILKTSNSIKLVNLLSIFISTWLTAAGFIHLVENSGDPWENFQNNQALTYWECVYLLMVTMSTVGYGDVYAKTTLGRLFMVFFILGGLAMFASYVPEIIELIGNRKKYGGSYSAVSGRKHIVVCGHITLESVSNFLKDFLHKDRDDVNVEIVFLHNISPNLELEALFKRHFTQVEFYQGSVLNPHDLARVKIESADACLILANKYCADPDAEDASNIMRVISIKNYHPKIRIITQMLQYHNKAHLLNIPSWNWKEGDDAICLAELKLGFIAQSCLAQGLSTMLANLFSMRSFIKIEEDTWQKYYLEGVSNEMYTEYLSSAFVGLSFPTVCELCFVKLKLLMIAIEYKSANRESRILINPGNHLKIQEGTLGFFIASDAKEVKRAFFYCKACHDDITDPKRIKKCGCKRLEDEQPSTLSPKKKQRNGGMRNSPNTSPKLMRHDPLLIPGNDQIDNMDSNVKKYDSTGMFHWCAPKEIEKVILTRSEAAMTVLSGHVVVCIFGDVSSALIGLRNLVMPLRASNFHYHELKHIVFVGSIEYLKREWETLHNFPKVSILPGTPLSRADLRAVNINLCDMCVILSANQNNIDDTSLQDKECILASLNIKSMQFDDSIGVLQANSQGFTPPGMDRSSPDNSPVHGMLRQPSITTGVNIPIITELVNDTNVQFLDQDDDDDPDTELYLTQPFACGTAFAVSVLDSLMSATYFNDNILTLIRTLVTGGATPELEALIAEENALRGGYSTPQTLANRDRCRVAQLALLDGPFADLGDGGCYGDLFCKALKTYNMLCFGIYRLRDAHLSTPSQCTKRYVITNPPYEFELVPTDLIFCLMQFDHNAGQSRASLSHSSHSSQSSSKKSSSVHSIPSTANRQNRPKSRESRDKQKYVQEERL

[6] = target: T2, KNCMA1 (Sus scrofa, UniProt O18866); test: Whole-cell current in primary pig aortic endothelial cells; assay type: cell-based
T2 construct: endogenous in cells; host or cells: primary pig aortic endothelial cells
T2 sequence (O18866 whole entry): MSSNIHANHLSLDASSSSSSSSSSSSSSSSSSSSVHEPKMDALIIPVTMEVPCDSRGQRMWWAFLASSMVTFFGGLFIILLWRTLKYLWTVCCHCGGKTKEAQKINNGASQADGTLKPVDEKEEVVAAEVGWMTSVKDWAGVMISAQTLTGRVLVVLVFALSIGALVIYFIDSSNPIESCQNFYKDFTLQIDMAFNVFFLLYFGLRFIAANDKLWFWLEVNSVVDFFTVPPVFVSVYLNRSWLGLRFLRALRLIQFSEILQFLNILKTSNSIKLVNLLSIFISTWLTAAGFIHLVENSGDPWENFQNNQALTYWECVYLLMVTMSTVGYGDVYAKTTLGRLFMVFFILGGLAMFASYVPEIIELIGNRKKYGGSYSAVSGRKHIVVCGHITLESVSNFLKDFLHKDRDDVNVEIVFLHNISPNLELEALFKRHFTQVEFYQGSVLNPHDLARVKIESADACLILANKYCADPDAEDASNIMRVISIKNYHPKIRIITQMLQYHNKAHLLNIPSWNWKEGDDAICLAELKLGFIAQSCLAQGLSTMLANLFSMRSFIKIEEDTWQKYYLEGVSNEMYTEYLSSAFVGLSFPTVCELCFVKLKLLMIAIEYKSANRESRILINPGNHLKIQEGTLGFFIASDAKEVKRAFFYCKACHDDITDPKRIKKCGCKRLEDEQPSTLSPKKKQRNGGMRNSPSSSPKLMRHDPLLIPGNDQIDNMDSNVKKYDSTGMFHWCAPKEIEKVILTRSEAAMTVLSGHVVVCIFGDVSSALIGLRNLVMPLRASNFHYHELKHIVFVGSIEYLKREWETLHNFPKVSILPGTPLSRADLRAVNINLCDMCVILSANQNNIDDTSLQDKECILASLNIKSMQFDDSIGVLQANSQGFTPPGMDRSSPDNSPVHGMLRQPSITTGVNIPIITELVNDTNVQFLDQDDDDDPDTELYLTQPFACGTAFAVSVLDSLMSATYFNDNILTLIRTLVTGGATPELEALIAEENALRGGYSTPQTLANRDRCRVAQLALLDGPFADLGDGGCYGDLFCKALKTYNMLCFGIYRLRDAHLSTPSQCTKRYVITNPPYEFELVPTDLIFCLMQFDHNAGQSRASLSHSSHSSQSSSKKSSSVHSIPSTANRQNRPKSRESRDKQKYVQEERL
From the text: Pig aortic endothelial cells only express KNCMAI and not KNCMB1-4 (Papassotiriou et al). Thus, the absence of stimulation indicates a lack of effect on KNCMA1.

[7] = test system: C57BL/6.Fmr1 knockout mice; test: Contextual fear conditioning in Fmr1 knockout mice; assay type: in vivo, mouse; conditions: wildtype mice; 2 mg/kg
Procedure: Animals: C57BL/6.J. Fmr1-K02 mice, which have a deletion of the promoter and exonl of the Fmr1 gene (Mientjes et al., 2006) and C57BL/6J wild type (WT) were originated from the Jackson laboratory (Ann Harbor, USA). Mice were housed in groups (4-6 per cage) and all animals were provided with ad libitum food and water unless otherwise stated. Mice were maintained on a 12 h light/12 h dark cycle (lights off 19:00 to 7:00) in a temperature-controlled environment (21±1° C.). Testing was conducted in the light phase. Mice were housed in commercial cages and experiments were performed in line with the United Kingdom Animals (Scientific procedures) Act 1986. All experiments were conducted with experimentors blind to genotype and drug treatment. Each experimental group contained 10 animals.
Drug Treatment: VSN16R was dissolved in saline for injection intravenously via a tail vein using 2 mg/kg a 30 g needle in a volume of 0.1 ml. Animals were inspected for differences in coat appearance, to detect whether any piloerection was present. The eye condition (runny eyes or porphyria, ptosis), gait appearance, tremor, tail tone, reactivity to handling was assessed to detect adverse behavioural effect.
Contextual fear conditioning: Animals are trained to expect an electroshock treatment within a defined environment, such that on subsequent presentation of the environment, freezing behaviours are induced. […]

[8] = test system: mesenteric arteries; conditions: cited from earlier work
[9] = target: T3, BK channel (Homo sapiens, UniProt Q12791); test: Inside-out patch clamp (single channel) on EA.hy926 cells; assay type: cell-based; set-up: The human umbilical vein derived endothelial cell line, EA.hy926; endogenous in cells; host or cells: EA.hy926 human endothelial cell line; conditions: human EA.hy926 cells, calcium dependent
Procedure: The human umbilical vein derived endothelial cell line, EA.hy926 (Edgell et al., Proc Natl Acad Sci USA. 1983 June; 80(12): 3734-7) at passage >45 was grown in DMEM containing 10% FCS and 1% HAT (5 mM hypoxanthine, 20 μM aminopterin, 0.8 mM thymidine) and cells were maintained in an incubator at 37° C. in 5% CO2 atmosphere. Cells were plated on either 10 mm (for patch-clamp recordings) or 30 mm glass cover slips (for Ca^2+ measurements).
Single-channel recordings were obtained from excised inside-out membrane patches in symmetrical solutions. The pipettes were filled with (in mM) 140 KCl, 10 HEPES, 1 MgCl2, 5 EGTA, 4,931 CaCl2 with pH 7.2 by adding KOH (i.e. 10 μM free Ca^2+, G. Droogmans, Leuven, Belgium; ftp://ftp.cc.kuleuven.ac.be/pub/droodmans/cabuf.zip). Cells were perfused with a standard bath solution containing (in mM) 140 NaCl, 5 KCl, 1.2 MgCl2, 10 HEPES, 10 glucose, 2.4 CaCl2. Following gigaseal formation, bath solution was switched to the following (in mM) 140 KCl, 10 HEPES, 1 MgCl2, 5 EGTA and a desired free Ca^2+ concentration which was adjusted by adding different amounts of CaCl2 calculated by the program CaBuf. pH was adjusted to 7.2 by adding KOH. Membrane currents and potential were recorded using a List EPC7 amplifier (List, Germany) and pClamp (version 8.2, Axon Instruments) software.
Target sequence in this assay (Q12791 1-1178 isoform Q12791-5): as the sequence (Q12791 1-1178 isoform Q12791-5) above
Target sequence in this assay (Q86W47 whole entry partner): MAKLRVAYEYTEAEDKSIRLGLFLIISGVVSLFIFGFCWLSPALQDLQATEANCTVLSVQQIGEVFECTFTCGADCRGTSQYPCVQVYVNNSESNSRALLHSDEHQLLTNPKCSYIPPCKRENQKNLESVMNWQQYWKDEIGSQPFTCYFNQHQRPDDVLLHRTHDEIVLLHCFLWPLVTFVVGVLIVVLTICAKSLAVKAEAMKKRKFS

[10] = target: T3, BK channel; set-up: host or cells: human airway smooth muscle (ASM) cells; conditions: human ASM cells; cited from earlier work
Target sequence in this assay (Q12791 whole entry): as the sequence (Q12791 whole entry) above

[11] = test system: OVA- and HDM-sensitized mice; conditions: cited from earlier work
[12] = test system: murine ex vivo lung slices; conditions: cited from earlier work
[13] = test system: isolated hearts; conditions: after cold cardioplegic arrest; cited from earlier work

SMILES: COc1ccc(Cl)cc1[C@@]1(F)C(=O)Nc2cc(C(F)(F)F)ccc21 [R-Maxipost]
- effect on tinnitus ([1]; dose not given): maintained the positive effect on tinnitus

SMILES: COc1ccc(Cl)cc1[C@]1(F)C(=O)Nc2cc(C(F)(F)F)ccc21 [BMS-204352]
- FXS-associated phenotypes [2]: could inhibit the FXS-associated phenotypes
- behavioural effects of tinnitus ([1]; 10 mg/kg): abolished
- cortical neuroprotection ([3]; administered two hours after onset of occlusion): provided significant levels of cortical neuroprotection
- blood pressure or cerebral blood flow ([3]; rat, in vivo): had no effect on blood pressure or cerebral blood flow
- opening of maxi-K channels [4]: potent, effective and uniquely Ca^2+-sensitive opener

- enhancement of BKCa current ([5]; 10 μM, steps −40 mV to +70 mV, 200 nM calcium): approximately doubled
SMILES: Nc1ncc(Cc2ccc(Br)cc2)s1 [NS19504, 5-[(4-bromophenyl)methyl]-2-thiazolannine, reference compound]

SMILES: CC[N+](CC)(CC)CC [TEA, reference compound]
- suppression of BKCa current ([5]; 5 mM): consistently suppressed the BKCa current

SMILES: CC(CO)NC(=O)c1cccc(/C=C\CCCC(=O)N(C)C)c1 (centres unmarked) [VSN16]
- effect on current ([6]; no BK beta chains): does not stimulate pig aortic endothelial cells
- fear conditioning and digging behaviour in wildtype mice [7]: exhibited no-inhibitory effect
- relaxation of mesenteric arteries [8]: relaxed mesenteric arteries in an endothelium-dependent manner
- vasorelaxation in the presence of rimonabant, AM 251 or O-1918 ([8]; high concentrations of the antagonists): antagonized

SMILES: CC(NC(=O)c1cccc(/C=C\CCCC(=O)N(C)C)c1)C(=O)O [VSN44R, (Z)-(3-(6-(dimethylamino)-6-oxohex-1-en-1-yl)benzoyI)-D-alanine]
- activation of the response of the channel [9]: activation of the response of the channel

SMILES: Clc1ccccc1C(c1ccccc1)(c1ccccc1)n1cccn1 [TRAM-34, reference compound]
- effect on residual current ([6]; IK channel blocker after VSN16R): a minor effect on this residual current

SMILES: CC(=O)c1c(O)c(C)c(O)c(Cc2c(O)c3c(c(C(=O)/C=C/c4ccccc4)c2O)OC(C)(C)C=C3)c1O [rottlerin]
- BK channel activity [10]: increases BK channel activity
- reduction in Th2 cytokines ([11]; bronchoalveolar lavage fluid): 20-35%
- reduction in inflammatory cells ([11]; bronchoalveolar lavage fluid): 35-40%
- reduction of AHR ([11]; intravenous, within 5 minutes, OVA-asthma mice, P<0.01): 45%
- methacholine-induced airway hyperreactivity (AHR) ([11]; systemic administration): reduces methacholine-induced airway hyperreactivity
- frequency of acetylcholine-induced Ca2+ oscillations [12]: reduces the frequency of acetylcholine-induced Ca^2+ oscillations
- cardiac contractile performance and coronary perfusion [13]: increases cardiac contractile performance and coronary perfusion

SMILES: CC(C)(O)[C@H]1O[C@H]2CC[C@@]3(C)[C@@](O)(CC[C@H]4Cc5c([nH]c6ccccc56)[C@@]43C)C2=CC1=O [paxilline, (2R,4bS,6aS,12bS,12cR,14aS)-5,6,6a,7,12,12b,12c,13,14,14a-Decahydro-4b-hydroxy-2-(1-hydroxy-1-methylethyl)-12b,12c-dimethyl-2H-pyrano[2″,3″:5′,6′]benz[1′,2′:6,7]indeno[1,2-b]indol-3(4bH)-one, reference compound]
- suppression of BKCa current ([5]; 10 μM): suppressed
- suppression of BKCa current ([5]; 10 μM, listed as Paxilline): consistently suppressed the BKCa current
